Experimental data published in ChEMBL document CHEMBL1133859, “Unprecedented sugar-dependent in vivo antitumor activity of carbohydrate-pendant cis-diamminedichloroplatinum(II) complexes” (Bioorg Med Chem Lett, 2001).

Test: Lethal dose in mice
Format: toxicity
Conditions: mouse, in vivo

Sequence: CISPLATIN
- LD50: 10 mg/kg
